Experimental data: article PMC12250347, “Calcium-dependent pathway as a primary cause of hypoxic RGC damage in monkey retinal explants” (PLOS One, 2025)
Entries after “also recorded” stand apart in the source; their conditions may differ.

How the values were obtained:
[1] = target: T1, human liver cathepsin B (Homo sapiens, UniProt P07858); assay: In vitro cathepsin inhibitory assay (Z-Phe-Arg-AMC fluorescence); type: biochemical; details: 15 ng/mL cathepsin B, 20 µM Z-Phe-Arg-AMC, 15 min, 37°C, pH 5.5; mean of two experiments
T1 construct: human liver cathepsin B (MilliporeSigma); purchased MilliporeSigma; host or cells: human liver
Experimental: (§1) Cathepsins K, B, and L were selected because of their known roles in cell death and early release following lysosomal membrane permeabilization. The inhibitory activities of cathepsin inhibitors were assessed in vitro using human recombinant cathepsin K (MilliporeSigma), human liver cathepsin B (MilliporeSigma), and human liver cathepsin L (MilliporeSigma). Cathepsins and the cathepsin substrate, Z-Phe-Arg-AMC (PEPTIDE INSTITUTE, INC.), were dissolved in 50 mM sodium acetate buffer (pH 5.5) containing 2 mM dithiothreitol and 2 mM EDTA. A cathepsin K inhibitor, Odanacatib (Selleck Chemicals, Houston, TX, USA), and a cathepsin L inhibitor, SID26681509 (Bio-Techne Corporation), were dissolved in dimethyl sulfoxide (DMSO) (Nacalai Tesque, Kyoto, Japan) before use in the assay. The final concentration of DMSO in the reaction solution was 2%. The cathepsin substrate, 20 µM Z-Phe-Arg-AMC, was incubated for 15 min with 20 ng/mL cathepsin K, 15 ng/mL cathepsin B, or 50 ng/mL cathepsin L, with or without each inhibitor at a final concentration of 0.001 nM to 100 µM in 100 µL of mixed reaction solution in a 96-well plate at 37 °C. The fluorescence was measured using a microplate reader (GloMax Discover System; Promega). IC50 values from two independent experiments were averaged.

[2] = target: T2, human liver cathepsin L (Homo sapiens, UniProt P07711); assay: as above; type: biochemical; details: 50 ng/mL cathepsin L, 20 µM Z-Phe-Arg-AMC, 15 min, 37°C, pH 5.5; mean of two experiments
T2 construct: human liver cathepsin L (MilliporeSigma); purchased MilliporeSigma; host or cells: human liver
Experimental: as §1

[3] = target: T3, human recombinant cathepsin K (Homo sapiens, UniProt P43235); assay: as above; type: biochemical; details: 20 ng/mL cathepsin K, 20 µM Z-Phe-Arg-AMC, 15 min, 37°C, pH 5.5; mean of two experiments
T3 construct: purchased MilliporeSigma
T3 sequence (P43235 115-329): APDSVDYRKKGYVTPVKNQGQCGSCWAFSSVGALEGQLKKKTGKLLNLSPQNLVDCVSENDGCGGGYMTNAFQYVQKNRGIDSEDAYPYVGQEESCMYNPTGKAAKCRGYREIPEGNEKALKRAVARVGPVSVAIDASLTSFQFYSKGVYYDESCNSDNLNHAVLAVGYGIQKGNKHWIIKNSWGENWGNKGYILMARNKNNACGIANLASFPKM
Experimental: as §1

[4] = system: RGCs in monkey retinal explants; assay: PI staining and RGC counting in retinal explants under hypoxia/reoxygenation; type: cell-based, rhesus macaques (Macaca mulatta)
Excerpt: Globes were obtained from rhesus macaques (Macaca mulatta) at 1–7 years of age from the Oregon National Primate Research Center (Beaverton, OR, USA). The wide range of ages was unavoidable because they became available from experiments that were unrelated to the present studies. These eyes were acceptable for the purpose of our experiments. The eyes were dissected within 5 hr after death, and excised eyes were soaked in cold Hanks’ balanced salt solution (HBSS; Corning, NY, USA) or Dulbecco’s phosphate-buffered saline (DPBS; Corning). Experimental animals were handled in accordance with the Research in Vision and Ophthalmology Statement for the Use of Animals in Ophthalmic and Vision Research and with the Guiding Principles in the Care and Use of Animals (Department of Health Education and Welfare Publication National Institutes of Health 80−23).
Retina explant culture was performed as described in our previous report, except for the induction of hypoxia. Briefly, a hypoxic chamber (Coy Laboratory Products, Grass Lake, MI, USA) was controlled at 0.3% oxygen with a 95% N2/5% CO2 gas mixture. Retinas were dissected into fan-shaped explants with 6 or 7 petals (> 5 mm) in HBSS. Each explant was placed with the RGC side facing up on a Millicell organotypic standing insert (0.4 μm, 30 mm diameter, MilliporeSigma) in six-well, culture plates. They were cultured for 2 hr at 37°C under 95% N2/5% CO2 in Neurobasal-A medium supplemented with B27, N2 supplements, 2 mM L-glutamine (Thermo Fisher Scientific, Waltham, MA, USA), and 100 μg/mL primocin (Invivogen, San Diego, CA, USA). Retinal explants were then chamber-cultured under hypoxic conditions for 16 hr in a culture medium with 0.5 mM glucose, under 0.3% oxygen. The retinas were then re-oxygenated for 8 hr in a culture medium with 5.5 mM glucose. Normoxic control retinas were cultured for 24 hr in a culture medium with 5.5 mM glucose. When present, calpain inhibitors (SNJ-1945, PD-151746, C2I, and ABT-957) and cathepsin inhibitors (Odanacatib and SID26681509) in 0.1% DMSO were used at the final concentration of 10 or 100 μM in the medium. BAPTA (Thermo Fisher Scientific) and BAPTA-AM (Thermo Fisher Scientific) were also used at a final concentration of 3 or 10 mM or a final concentration of 100 or 500 μM, respectively.
All inhibitors and BAPTA were treated simultaneously with hypoxia induction, and BAPTA-AM treatment was 2 hr before hypoxia induction.
To assess the disruption of membrane barrier function, propidium iodide (PI) was utilized. Following hypoxia/reoxygenation treatment, retinal explants were incubated for 20 min in a medium containing a final concentration of 2 μg/ml of PI. For quantitative analysis, the RGC marker, RNA-binding protein with multiple splicing (RBPMS) was used at a 1:100 dilution (PhosphoSolutions, Aurora, CO, USA). RBPMS-positive and PI-positive cells in the ganglion cell layer were counted in 2 images from 2 square areas (775 × 775 μm each) located 3–5 mm and 5–7 mm away from the tips of the fan-shaped retinal flat mounts. The percentage of PI-positive RGCs was calculated as [the number of PI and RBPMS-double positive cells/the number of all RBPMS-positive cells] × 100.

[5] = system: RGCs in monkey retinal explants; set-up: method as in PMID 26393472, PMID 33156340; details: human and monkey retinal explants treated with hypoxia; cited from earlier work
[6] = system: calpain 1 activation and proteolysis of α-spectrin; set-up: method as in PMID 26393472; details: immunoblotting of hypoxic retinal explants; cited from earlier work
[7] = 16 hr hypoxia/8 hr reoxygenation (H16R8), cathepsin inhibitor at 10 or 100 µM

T2 sequence (P07711 114-333): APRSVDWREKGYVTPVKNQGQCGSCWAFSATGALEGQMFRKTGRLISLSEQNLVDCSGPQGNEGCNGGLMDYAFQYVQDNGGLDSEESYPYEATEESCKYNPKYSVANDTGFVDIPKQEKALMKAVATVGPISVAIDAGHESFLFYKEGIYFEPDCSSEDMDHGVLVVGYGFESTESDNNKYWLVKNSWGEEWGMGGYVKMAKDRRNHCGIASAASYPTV

Compound	IC50 [1] [nM]	IC50 [2] [nM]	IC50 [3] [nM]	Effect on percentage of PI-positive RGCs [4, 7]	Effect on percentage of PI-positive RGCs ([4]; H16R8, calpain inhibitor at 100 µM)	Effect on RGC damage in hypoxic retinal explants [5]	Effect on autolysis of calpain 1 in hypoxic retinal explants [6]	Effect on autolysis of calpain 2 in hypoxic retinal explants [6]
CC(C)(F)C[C@H](N[C@@H](c1ccc(-c2ccc(S(C)(=O)=O)cc2)cc1)C(F)(F)F)C(=O)NC1(C#N)CC1 [Odanacatib]	167	5130	0.28	did not reduce				
CCc1ccccc1NC(=O)CSC(=O)NNC(=O)[C@H](Cc1c[nH]c2ccccc12)NC(=O)OC(C)(C)C [SID26681509]	495	60	1520	did not reduce				
COCCOCCOC(=O)N[C@@H](CC(C)C)C(=O)N[C@@H](Cc1ccccc1)C(=O)C(=O)NC1CC1 [SNJ-1945]					significantly decreased; also recorded: demonstrated efficacy in reducing PI-positive RGCs	partially inhibited RGC damage	inhibited the autolysis of calpain 1	did not affect
